From patent publication US8846917B2, “Compounds useful as inhibitors of ATR kinase” (Vertex Pharmaceuticals Incorporated, priority 2011, dated 2014)
pKi: −log10 of the molar value.

Molecular target: full-length ATR (Homo sapiens (Human), UniProt Q13535)
Experiment: ATR Inhibition Assay (radioactive-phosphate incorporation)
Format: biochemical
Settings: Ki(app); 10 μM ATP, 800 μM target peptide, 5 nM full-length ATR, 25° C.
Description: Compounds were screened for their ability to inhibit ATR kinase using a radioactive-phosphate incorporation assay. Assays were carried out in a mixture of 50 mM Tris/HCl (pH 7.5), 10 mM MgCl2 and 1 mM DTT. […] Assays were carried out at 25° C. in the presence of 5 nM full-length ATR. An assay stock buffer solution was prepared containing all of the reagents listed above, with the exception of ATP and the test compound of interest. […] The plate was pre-incubated for 10 minutes at 25° C. and the reaction initiated by addition of 15 μL [γ-33P]ATP (final concentration 10 μM). The reaction was stopped after 24 hours by the addition of 30 μL 0.1M phosphoric acid containing 2 mM ATP. A multiscreen phosphocellulose filter 96-well plate (Millipore, Cat no. MAPHN0B50) was pretreated with 100 μL 0.2M phosphoric acid prior to the addition of 45 μL of the stopped assay mixture. The plate was washed with 5×200 μL 0.2M phosphoric acid. After drying, 100 μL Optiphase ‘SuperMix’ liquid scintillation cocktail (Perkin Elmer) was added to the well prior to scintillation counting (1450 Microbeta Liquid Scintillation Counter, Wallac). After removing mean background values for all of the data points, Ki(app) data were calculated from non-linear regression analysis of the initial rate data using the Prism software package (GraphPad Prism version 3.0cx for Macintosh, GraphPad Software, San Diego Calif., USA).

Chain of full-length ATR (Q13535 whole entry): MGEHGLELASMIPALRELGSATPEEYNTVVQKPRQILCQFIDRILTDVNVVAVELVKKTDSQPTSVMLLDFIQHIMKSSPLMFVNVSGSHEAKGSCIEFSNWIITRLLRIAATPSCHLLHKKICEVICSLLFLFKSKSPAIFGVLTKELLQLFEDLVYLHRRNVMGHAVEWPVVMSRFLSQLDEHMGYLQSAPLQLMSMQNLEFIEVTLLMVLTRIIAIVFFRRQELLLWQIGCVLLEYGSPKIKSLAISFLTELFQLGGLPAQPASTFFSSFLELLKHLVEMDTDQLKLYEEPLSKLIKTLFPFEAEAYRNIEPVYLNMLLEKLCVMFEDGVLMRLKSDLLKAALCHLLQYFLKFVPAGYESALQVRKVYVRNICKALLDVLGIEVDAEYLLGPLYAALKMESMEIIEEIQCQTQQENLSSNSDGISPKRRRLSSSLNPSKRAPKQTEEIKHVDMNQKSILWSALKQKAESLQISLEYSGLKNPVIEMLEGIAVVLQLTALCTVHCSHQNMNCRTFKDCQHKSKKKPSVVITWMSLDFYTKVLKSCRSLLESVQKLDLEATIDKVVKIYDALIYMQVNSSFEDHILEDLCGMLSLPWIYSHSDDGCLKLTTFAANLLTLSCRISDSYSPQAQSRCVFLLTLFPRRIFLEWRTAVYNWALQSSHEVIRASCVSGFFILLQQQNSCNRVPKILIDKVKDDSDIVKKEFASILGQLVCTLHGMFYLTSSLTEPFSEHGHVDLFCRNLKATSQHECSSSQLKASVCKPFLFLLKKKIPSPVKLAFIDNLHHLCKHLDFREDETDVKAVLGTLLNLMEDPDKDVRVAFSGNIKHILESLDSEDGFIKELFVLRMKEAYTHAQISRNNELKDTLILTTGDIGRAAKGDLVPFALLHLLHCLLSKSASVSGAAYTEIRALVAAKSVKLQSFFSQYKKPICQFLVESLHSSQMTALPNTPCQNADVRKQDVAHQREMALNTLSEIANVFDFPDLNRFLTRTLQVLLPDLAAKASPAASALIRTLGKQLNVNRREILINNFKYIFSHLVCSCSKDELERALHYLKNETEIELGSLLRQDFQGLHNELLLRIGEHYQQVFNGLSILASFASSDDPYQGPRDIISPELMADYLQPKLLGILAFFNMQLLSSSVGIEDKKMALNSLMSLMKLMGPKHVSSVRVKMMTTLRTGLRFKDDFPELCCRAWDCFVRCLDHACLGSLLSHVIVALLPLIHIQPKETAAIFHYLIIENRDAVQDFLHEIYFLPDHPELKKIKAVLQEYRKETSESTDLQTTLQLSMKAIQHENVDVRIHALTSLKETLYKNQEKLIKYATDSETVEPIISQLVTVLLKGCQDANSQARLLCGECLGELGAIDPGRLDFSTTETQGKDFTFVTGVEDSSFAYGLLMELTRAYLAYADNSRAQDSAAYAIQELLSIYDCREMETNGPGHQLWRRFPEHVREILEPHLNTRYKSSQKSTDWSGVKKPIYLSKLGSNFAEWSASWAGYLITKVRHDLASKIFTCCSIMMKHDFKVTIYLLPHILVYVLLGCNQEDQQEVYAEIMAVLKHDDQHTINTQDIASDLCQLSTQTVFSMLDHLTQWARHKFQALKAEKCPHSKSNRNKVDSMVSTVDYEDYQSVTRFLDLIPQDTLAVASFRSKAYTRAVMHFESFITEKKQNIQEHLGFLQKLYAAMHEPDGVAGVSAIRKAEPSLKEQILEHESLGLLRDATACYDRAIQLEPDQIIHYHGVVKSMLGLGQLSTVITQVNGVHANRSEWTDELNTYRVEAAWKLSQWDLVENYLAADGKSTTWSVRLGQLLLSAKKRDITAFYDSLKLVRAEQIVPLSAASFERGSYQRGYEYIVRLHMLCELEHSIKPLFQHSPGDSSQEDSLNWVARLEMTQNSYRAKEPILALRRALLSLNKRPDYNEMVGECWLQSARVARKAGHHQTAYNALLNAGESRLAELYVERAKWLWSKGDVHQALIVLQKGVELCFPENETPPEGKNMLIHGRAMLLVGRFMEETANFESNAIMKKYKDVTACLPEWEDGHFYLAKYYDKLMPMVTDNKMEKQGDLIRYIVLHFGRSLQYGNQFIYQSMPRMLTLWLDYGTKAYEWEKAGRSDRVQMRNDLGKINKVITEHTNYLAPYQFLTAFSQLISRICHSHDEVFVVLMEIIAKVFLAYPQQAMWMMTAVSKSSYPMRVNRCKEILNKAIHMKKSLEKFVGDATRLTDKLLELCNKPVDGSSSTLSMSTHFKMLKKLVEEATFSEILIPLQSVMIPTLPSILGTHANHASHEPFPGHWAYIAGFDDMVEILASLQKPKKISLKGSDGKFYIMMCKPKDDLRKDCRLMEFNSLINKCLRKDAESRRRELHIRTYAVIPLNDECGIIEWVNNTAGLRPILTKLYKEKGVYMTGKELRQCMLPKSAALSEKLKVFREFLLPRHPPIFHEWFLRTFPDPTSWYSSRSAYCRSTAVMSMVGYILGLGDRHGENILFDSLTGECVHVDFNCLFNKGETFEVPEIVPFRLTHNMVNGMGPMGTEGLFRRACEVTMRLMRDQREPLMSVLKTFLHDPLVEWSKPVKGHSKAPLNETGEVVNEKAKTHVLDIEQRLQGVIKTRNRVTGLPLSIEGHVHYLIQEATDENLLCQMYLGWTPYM

pKi: 8.22
Structure (SMILES): CC(C)S(=O)(=O)c1ccc(-c2cnc(N)c(-c3cn(-c4ccccc4)nn3)n2)cc1 [Compound I-1, 5-(4-(isopropylsulfonyl)phenyl)-3-(1-phenyl-1H-1,2,3-triazol-4-yl)pyrazin-2-amine]
